Experimental data reported in patent US20260274833A1 (NiKang Therapeutics, Inc., priority 2022, published 2026).

The molecules below were run against T1, CDK2 (Homo sapiens, UniProt P24941) (assay: Phospho-RB measurement in OVCAR3 cells (HTRF phospho-RB cellular kit)). Conditions: inhibition of RB phosphorylation at S807/811 (HTRF, TR-FRET ratio 665/620), 24 h compound treatment, 0.3 to 10,000 nM.
T1 construct: endogenous in cells; host or cells: OVCAR3 cells
Type: cell-based
Method in brief: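 IC50 came from a four-parameter logistic fit of the DMSO-normalized TR-FRET ratio (665/620 nm). That ratio reflects RB phosphorylation at S807/811, read with an HTRF antibody pair 4 h after adding lysate at room temperature.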
Work on `CC(C)(C)c1nc(-c2cccc(NS(=O)(=O)N3CCn4c(nnc4C(F)(F)F)C3)c2F)c(-c2ccnc(NC3CCN(S(C)(=O)=O)CC3)n2)s1` [Example 94, N-(3-(2-(tert-butyl)-5-(2-((1-(methylsulfonyl)-piperidin-4-yl)amino)-pyrimidin-4-yl)thiazol-4-yl)-2-fluoro-phenyl)-3-(trifluoromethyl)-5,6-dihydro-[1,2,4]triazolo [4,3-a]pyrazine-7(8H)-sulfonamide] yielded an IC50 of 5940 nM. For `CC(C)(C)c1nc(-c2cccc(NS(=O)(=O)N3Cc4cccnc4C3)c2F)c(-c2ccnc(NC3CCN(S(C)(=O)=O)CC3)n2)s1` [Example 95, N-(3-(2-(tert-butyl)-5-(2-((1-(methylsulfonyl)piperidin-4-yl)amino)-pyrimidin-4-yl)thiazol-4-yl)-2-fluoro-phenyl)-5,7-dihydro-6H-pyrrolo-[3,4-b]pyridine-6-sulfonamide], the IC50 was 610 nM. Molecule `CN(C)S(=O)(=O)Nc1cccc(-c2nc(C(C)(C)C)sc2-c2ccnc(NC3CCN(S(=O)(=O)N4CCNCC4)CC3)n2)c1F` [Example 96, N-(3-(2-(tert-butyl)-5-(2-((1-(piperazin-1-ylsulfonyl)piperidin-4-yl)amino)-pyrimidin-4-yl)thiazol-4-yl)-2-fluorophenyl) dimethylamine-sulfonamide] has an IC50 of 454 nM. Molecule `CC(C)(C)c1nc(-c2cccc(NS(=O)(=O)N3Cc4ccc(C#N)cc4C3)c2F)c(-c2ccnc(NC3CCN(S(C)(=O)=O)CC3)n2)s1` [Example 97, N-(3-(2-(tert-butyl)-5-(2-((1-(methylsulfonyl)piperidin-4-yl)amino)-pyrimidin-4-yl)thiazol-4-yl)-2-fluorophenyl)-5-cyanoisoindoline-2-sulfonamide] has an IC50 of 285 nM. In the case of `CC(C)(C)c1nc(-c2cccc(NS(=O)(=O)N3CCOc4ccccc43)c2F)c(-c2ccnc(NC3CCN(S(C)(=O)=O)CC3)n2)s1` [Example 98, N-(3-(2-(tert-butyl)-5-(2-((1-(methylsulfonyl)piperidin-4-yl)amino)-pyrimidin-4-yl)thiazol-4-yl)-2-fluoro-phenyl)-2,3-dihydro-4H-benzo[b][1,4]-oxazine-4-sulfonamide], the IC50 is reported as 511 nM. For `CN1CCN(S(=O)(=O)Nc2cccc(-c3nc(C(C)(C)C)sc3-c3ccnc(NC4CCN(S(C)(=O)=O)CC4)n3)c2F)c2ccccc21` [Example 99, N-(3-(2-(tert-butyl)-5-(2-((1-(methylsulfonyl)piperidin-4-yl)amino)-pyrimidin-4-yl)thiazol-4-yl)-2-fluoro-phenyl)-4-methyl-3,4-dihydro-quinoxaline-1(2H)-sulfonamide], the IC50 was 202 nM. `CN(c1ccccc1)S(=O)(=O)Nc1cccc(-c2nc(C(C)(C)C)sc2-c2ccnc(NC3CCN(S(C)(=O)=O)CC3)n2)c1F` [Example 100, N-(3-(2-(tert-butyl)-5-(2-((1-(methylsulfonyl)piperidin-4-yl)amino)-pyrimidin-4-yl)thiazol-4-yl)-2-fluorophenyl)(N-methyl-N-phenyl)-aminosulfonamide] gave an IC50 of 1240 nM. With `CC(C)(C)OC(=O)N1CCN(S(=O)(=O)Nc2cccc(-c3nc(C(C)(C)C)sc3-c3ccnc(NC4CCN(S(C)(=O)=O)CC4)n3)c2F)c2ccccc21` [Example 101, tert-butyl 4-(N-(3-(2-(tert-butyl)-5-(2-((1-(methylsulfonyl)piperidin-4-yl)amino)-pyrimidin-4-yl)thiazol-4-yl)-2-fluorophenyl)-sulfamoyl)-3,4-dihydroquinoxaline-1(2H)-carboxylate] the IC50 was 1830 nM. `CC(C)(C)c1nc(-c2cccc(NS(=O)(=O)N3CCNc4ccccc4C3)c2F)c(-c2ccnc(NC3CCN(S(C)(=O)=O)CC3)n2)s1` [Example 102, N-(3-(2-(tert-butyl)-5-(2-((1-(methylsulfonyl)piperidin-4-yl)amino)-pyrimidin-4-yl)thiazol-4-yl)-2-fluorophenyl)-1,2,3,5-tetrahydro-4H-benzo[e] [1,4]diazepine-4-sulfonamide] was tested, and the IC50 was 281 nM. `CC(C)(C)c1nc(-c2cccc(NS(=O)(=O)N3Cc4ccncc4C3)c2F)c(-c2ccnc(NC3CCN(S(C)(=O)=O)CC3)n2)s1` [Example 103, N-(3-(2-(tert-butyl)-5-(2-((1-(methylsulfonyl)piperidin-4-yl)amino)-pyrimidin-4-yl)thiazol-4-yl)-2 fluorophenyl)-1,3-dihydro-2H-pyrrolo[3,4-c] pyridine-2-sulfonamide] was tested, and the IC50 was 142 nM. Work on `CC(C)(C)c1nc(-c2cccc(NS(=O)(=O)N3CCc4c(C#N)cccc43)c2F)c(-c2ccnc(NC3CCN(S(C)(=O)=O)CC3)n2)s1` [Example 104, N-(3-(2-(tert-butyl)-5-(2-((1-(methylsulfonyl)piperidin-4-yl)amino)-pyrimidin-4-yl)thiazol-4-yl)-2-fluorophenyl)-4-cyanoindoline-1-sulfonamide] yielded an IC50 of 82 nM. Molecule `CN(C)CCN(C)S(=O)(=O)N1CCC(Nc2nccc(-c3sc(C(C)(C)C)nc3-c3cccc(NS(=O)(=O)N4CCOc5ccccc5C4)c3F)n2)CC1` [Example 105, N-(3-(2-(tert-butyl)-5-(2-((1-(N-(2-(dimethyl-amino)ethyl)-N-methyl-sulfamoyl)piperidin-4-yl)amino)-pyrimidin-4-yl)thiazol-4-yl)-2-fluoro-phenyl)-2,3-dihydrobenzo [f][1,4]-oxazepine-4 (5H)-sulfonamide] has an IC50 of 215 nM. For `CC(C)(C)c1nc(-c2cccc(NS(=O)(=O)N3CCNc4ccccc43)c2F)c(-c2ccnc(NC3CCN(S(C)(=O)=O)CC3)n2)s1` [Example 106, N-(3-(2-(tert-butyl)-5-(2-((1-(methylsulfonyl)piperidin-4-yl)amino)-pyrimidin-4-yl)thiazol-4-yl)-2-fluorophenyl)-3,4-dihydroquinoxaline-1(2H)-sulfonamide], the IC50 was 263 nM. `CN(C1CCC1)S(=O)(=O)Nc1cccc(-c2nc(C(C)(C)C)sc2-c2ccnc(NC3CCN(S(=O)(=O)N4CCNCC4)CC3)n2)c1F` [Example 107, N-(3-(2-(tert-butyl)-5-(2-((1-(piperazin-1-yl-sulfonyl)piperidin-4-yl)amino)-pyrimidin-4-yl)thiazol-4-yl)-2-fluoro-phenyl)(N-methyl-N-cyclo-butylamine)-sulfonamide] was tested, and the IC50 was 919 nM. For `CN(C1CC1)S(=O)(=O)Nc1cccc(-c2nc(C(C)(C)C)sc2-c2ccnc(NC3CCN(S(=O)(=O)N4CCNCC4)CC3)n2)c1F` [Example 108, N-(3-(2-(tert-butyl)-5-(2-((1-(piperazin-1-yl-sulfonyl)piperidin-4-yl)amino)-pyrimidin-4-yl)thiazol-4-yl)-2-fluoro-phenyl)(N-methyl-N-cyclopro-pylamine)-sulfonamide], the IC50 was 2070 nM. In the case of `CC1c2ccccc2CN1S(=O)(=O)Nc1cccc(-c2nc(C(C)(C)C)sc2-c2ccnc(NC3CCN(S(C)(=O)=O)CC3)n2)c1F` (centres unmarked) [Example 109, N-(3-(2-(tert-butyl)-5-(2-((1-(methylsulfonyl)-piperidin-4-yl)amino)-pyrimidin-4-yl)thiazol-4-yl)-2-fluoro-phenyl)-1-methylisoindoline-2-sulfonamide], the IC50 is reported as 210 nM. Molecule `CC(C)(C)c1nc(-c2cccc(NS(=O)(=O)N3CCOc4ncccc4C3)c2F)c(-c2ccnc(NC3CCN(S(C)(=O)=O)CC3)n2)s1` [Example 110, N-(3-(2-(tert-butyl)-5-(2-((1-(methylsulfonyl)-piperidin-4-yl)amino)-pyrimidin-4-yl)thiazol-4-yl)-2-fluoro-phenyl)-2,3-dihydropyrido [3,2-f][1,4]-oxazepine-4 (5H)-sulfonamide] has an IC50 of 1030 nM.
